The values that follow come from BindingDB's records for PubMed 11714898 (Creighton University, 2001).

Each structure is given as a SMILES string. Residues, ends and D or L forms follow the SMILES beside them.

The target of assay [1] is T1, Receptor activity-modifying protein 1 (Sus scrofa, UniProt Q867C0).
T1 sequence (Q867C0 whole entry): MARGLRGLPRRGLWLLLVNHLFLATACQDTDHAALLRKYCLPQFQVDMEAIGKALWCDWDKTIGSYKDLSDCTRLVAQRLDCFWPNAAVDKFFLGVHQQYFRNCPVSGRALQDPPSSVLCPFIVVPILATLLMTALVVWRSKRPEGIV

The target in assay [2] is Calcitonin gene-related peptide type 1 receptor (Sus scrofa, UniProt Q8WN93).
Chain of Calcitonin gene-related peptide type 1 receptor (Q8WN93 whole entry): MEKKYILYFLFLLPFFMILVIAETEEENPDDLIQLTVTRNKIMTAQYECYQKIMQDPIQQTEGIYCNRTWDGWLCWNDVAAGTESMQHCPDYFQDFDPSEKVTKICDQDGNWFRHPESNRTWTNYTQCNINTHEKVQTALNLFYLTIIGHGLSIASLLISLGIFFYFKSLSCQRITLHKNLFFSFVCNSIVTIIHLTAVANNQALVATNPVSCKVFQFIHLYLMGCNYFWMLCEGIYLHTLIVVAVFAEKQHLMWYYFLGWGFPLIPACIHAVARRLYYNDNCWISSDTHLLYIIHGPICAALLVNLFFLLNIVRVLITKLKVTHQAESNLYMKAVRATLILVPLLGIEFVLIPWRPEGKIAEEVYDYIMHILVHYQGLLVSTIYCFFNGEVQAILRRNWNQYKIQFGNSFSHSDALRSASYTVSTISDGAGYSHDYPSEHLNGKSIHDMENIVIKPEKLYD

In turn, `CC(C)C[C@H](NC(=O)CNC(=O)[C@H](C)NC(=O)[C@H](CC(C)C)NC(=O)[C@H](CCCNC(=N)N)NC(=O)[C@H](Cc1cnc[nH]1)NC(=O)[C@@H](NC(=O)[C@@H](N)C(C)C)[C@@H](C)O)C(=O)N[C@@H](CC(C)C)C(=O)N[C@@H](CO)C(=O)N[C@@H](CCCNC(=N)N)C(=O)N[C@@H](CO)C(=O)NCC(=O)NCC(=O)N[C@H](C(=O)N[C@H](C(=O)N[C@@H](CCCCN)C(=O)N[C@@H](CC(N)=O)C(=O)N[C@@H](CC(N)=O)C(=O)N[C@@H](Cc1ccccc1)C(=O)N[C@H](C(=O)N1CCC[C@H]1C(=O)N[C@H](C(=O)N[C@@H](CC(N)=O)C(=O)N[C@H](C(=O)NCC(=O)N[C@@H](CO)C(=O)N[C@@H](CCCCN)C(=O)N[C@@H](C)C(=O)N[C@@H](Cc1ccccc1)C(N)=O)C(C)C)[C@@H](C)O)C(C)C)C(C)C)C(C)C` had a Ki in assay [1] of 5.7 nM.
For the compound `CC(C)C[C@H](NC(=O)CNC(=O)[C@H](C)NC(=O)[C@H](CC(C)C)NC(=O)[C@H](CCCN=C(N)N)NC(=O)[C@H](Cc1cnc[nH]1)NC(=O)[C@@H](NC(=O)[C@@H](N)C(C)C)[C@@H](C)O)C(=O)N[C@@H](CC(C)C)C(=O)N[C@@H](CO)C(=O)N[C@@H](CCCN=C(N)N)C(=O)N[C@@H](CO)C(=O)NCC(=O)NCC(=O)N[C@H](C(=O)N[C@H](C(=O)N[C@@H](CCCCN)C(=O)N[C@@H](CC(N)=O)C(=O)N[C@@H](CC(N)=O)C(=O)N[C@@H](Cc1ccccc1)C(=O)N[C@H](C(=O)N1CCC[C@H]1C(=O)N[C@H](C(=O)N[C@@H](CC(N)=O)C(=O)N[C@H](C(=O)NCC(=O)N[C@@H](CO)C(=O)N[C@@H](CCCCN)C(=O)N[C@@H](C)C(=O)N[C@@H](C)C(N)=O)C(C)C)[C@@H](C)O)C(C)C)C(C)C)C(C)C` [[Ala37]h alpha-CGRP8-37] (H-VTHRLAGLLSRSGGVVKNNFVPTNVGSKAA-NH2), the Ki in assay [1] was determined as 1020 nM; in assay [2] it was 500 nM.
The corresponding values for `CC(C)C[C@H](NC(=O)CNC(=O)[C@H](C)NC(=O)[C@H](CC(C)C)NC(=O)[C@H](CCCN=C(N)N)NC(=O)[C@H](Cc1cnc[nH]1)NC(=O)[C@@H](NC(=O)[C@@H](N)C(C)C)[C@@H](C)O)C(=O)N[C@@H](CC(C)C)C(=O)N[C@@H](CO)C(=O)N[C@@H](CCCN=C(N)N)C(=O)N[C@@H](CO)C(=O)NCC(=O)NCC(=O)N[C@H](C(=O)N[C@H](C(=O)N[C@@H](CCCCN)C(=O)N[C@@H](CC(N)=O)C(=O)N[C@@H](CC(N)=O)C(=O)N[C@@H](Cc1ccccc1)C(=O)N[C@H](C(=O)N1CCC[C@H]1C(=O)N[C@H](C(=O)N[C@@H](CC(N)=O)C(=O)N[C@H](C(=O)NCC(=O)N[C@@H](CO)C(=O)N[C@@H](CCCCN)C(=O)N[C@@H](C)C(=O)N[C@@H](CC1CCCCC1)C(N)=O)C(C)C)[C@@H](C)O)C(C)C)C(C)C)C(C)C` [[Cha37]h alpha-CGRP8-37] (HELM PEPTIDE1{V.T.H.R.L.A.G.L.L.S.R.S.G.G.V.V.K.N.N.F.V.P.T.N.V.G.S.K.A.[Cha].[am]}$$$$V2.0) are 37.9 nM and 32.7 nM.
The corresponding values for `CC(=O)NCSC[C@H](NC(=O)[C@H](C)N)C(=O)N[C@@H](CC(=O)O)C(=O)N[C@H](C(=O)N[C@@H](C)C(=O)N[C@H](C(=O)N[C@@H](CSCNC(C)=O)C(=O)N[C@H](C(=O)N[C@H](C(=O)N[C@@H](Cc1cnc[nH]1)C(=O)N[C@@H](CCCNC(=N)N)C(=O)N[C@@H](CC(C)C)C(=O)N[C@@H](C)C(=O)NCC(=O)N[C@@H](CC(C)C)C(=O)N[C@@H](CC(C)C)C(=O)N[C@@H](CO)C(=O)N[C@@H](CCCNC(=N)N)C(=O)N[C@@H](CO)C(=O)NCC(=O)NCC(=O)N[C@H](C(=O)N[C@H](C(=O)N[C@@H](CCCCN)C(=O)N[C@@H](CC(N)=O)C(=O)N[C@@H](CC(N)=O)C(=O)N[C@@H](Cc1ccccc1)C(=O)N[C@H](C(=O)N1CCC[C@H]1C(=O)N[C@H](C(=O)N[C@@H](CC(N)=O)C(=O)N[C@H](C(=O)NCC(=O)N[C@@H](CO)C(=O)N[C@@H](CCCCN)C(=O)N[C@@H](C)C(=O)N[C@@H](Cc1ccccc1)C(N)=O)C(C)C)[C@@H](C)O)C(C)C)C(C)C)C(C)C)[C@@H](C)O)C(C)C)[C@@H](C)O)[C@@H](C)O` [[Cys(ACM)2,7]h alpha-CGRP] are 32 nM and 38.4 nM.
As for `CC(C)C[C@H](NC(=O)CNC(=O)[C@H](C)NC(=O)[C@H](CC(C)C)NC(=O)[C@H](CCCNC(=N)N)NC(=O)[C@H](Cc1cnc[nH]1)NC(=O)[C@@H](NC(=O)[C@@H](NC(=O)[C@@H]1NC(=O)[C@H]([C@@H](C)O)NC(=O)[C@H](C)NC(=O)[C@H]([C@@H](C)O)NC(=O)[C@H](CC(=O)O)NC(=O)[C@H](NC(=O)[C@H](C)N)C(C)(C)SSC1(C)C)C(C)C)[C@@H](C)O)C(=O)N[C@@H](CC(C)C)C(=O)N[C@@H](CO)C(=O)N[C@@H](CCCNC(=N)N)C(=O)N[C@@H](CO)C(=O)NCC(=O)NCC(=O)N[C@H](C(=O)N[C@H](C(=O)N[C@@H](CCCCN)C(=O)N[C@@H](CC(N)=O)C(=O)N[C@@H](CC(N)=O)C(=O)N[C@@H](Cc1ccccc1)C(=O)N[C@H](C(=O)N1CCC[C@H]1C(=O)N[C@H](C(=O)N[C@@H](CC(N)=O)C(=O)N[C@H](C(=O)NCC(=O)N[C@@H](CO)C(=O)N[C@@H](CCCCN)C(=O)N[C@@H](C)C(=O)N[C@@H](Cc1ccccc1)C(N)=O)C(C)C)[C@@H](C)O)C(C)C)C(C)C)C(C)C` [[D-Pen2,7]h alpha-CGRP], the Ki in assay [1] was 15.2 nM; in assay [2] it was 21 nM.
`CC(=O)N[C@H](C(=O)N[C@H](C(=O)N[C@@H](Cc1cnc[nH]1)C(=O)N[C@@H](CCCN=C(N)N)C(=O)N[C@@H](CC(C)C)C(=O)N[C@@H](C)C(=O)NCC(=O)N[C@@H](CC(C)C)C(=O)N[C@@H](CC(C)C)C(=O)N[C@@H](CO)C(=O)N[C@@H](CCCN=C(N)N)C(=O)N[C@@H](CO)C(=O)NCC(=O)NCC(=O)N[C@H](C(=O)N[C@H](C(=O)N[C@@H](CCCCN)C(=O)N[C@@H](CC(N)=O)C(=O)N[C@@H](CC(N)=O)C(=O)N[C@@H](Cc1ccccc1)C(=O)N[C@H](C(=O)N1CCC[C@H]1C(=O)N[C@H](C(=O)N[C@@H](CC(N)=O)C(=O)N[C@H](C(=O)NCC(=O)N[C@@H](CO)C(=O)N[C@@H](CCCCN)C(=O)N[C@@H](C)C(=O)N[C@@H](Cc1ccccc1)C(N)=O)C(C)C)[C@@H](C)O)C(C)C)C(C)C)C(C)C)[C@@H](C)O)C(C)C` [[N-acetyl]h alpha-CGRP8-37] displayed an inhibition constant Ki in assay [1] of 1.3 nM.
For `CC(C)C[C@H](NC(=O)CNC(=O)[C@H](C)NC(=O)[C@H](CC(C)C)NC(=O)[C@H](CCCN=C(N)N)NC(=O)[C@H](Cc1cnc[nH]1)NC(=O)[C@@H](NC(=O)[C@@H](NCc1ccc(O)cc1)C(C)C)[C@@H](C)O)C(=O)N[C@@H](CC(C)C)C(=O)N[C@@H](CO)C(=O)N[C@@H](CCCN=C(N)N)C(=O)N[C@@H](CO)C(=O)NCC(=O)NCC(=O)N[C@H](C(=O)N[C@H](C(=O)N[C@@H](CCCCN)C(=O)N[C@@H](CC(N)=O)C(=O)N[C@@H](CC(N)=O)C(=O)N[C@@H](Cc1ccccc1)C(=O)N[C@H](C(=O)N1CCC[C@H]1C(=O)N[C@H](C(=O)N[C@@H](CC(N)=O)C(=O)N[C@H](C(=O)NCC(=O)N[C@@H](CO)C(=O)N[C@@H](CCCCN)C(=O)N[C@@H](C)C(=O)N[C@@H](Cc1ccccc1)C(N)=O)C(C)C)[C@@H](C)O)C(C)C)C(C)C)C(C)C` [[N-benzol]h alpha-CGRP8-37], the figures for the Ki in assay [1] and in assay [2] were 0.072 nM and 0.27 nM, respectively.
The like results for `CC(C)C[C@H](NC(=O)[C@H](CCCNC(=N)N)NC(=O)[C@H](Cc1cnc[nH]1)NC(=O)[C@@H](NC(=O)[C@@H](NC(=O)[C@@H]1CSSC[C@H](NC(=O)[C@H](C)N)C(=O)N[C@@H](CC(=O)O)C(=O)N[C@@H]([C@@H](C)O)C(=O)N[C@@H](C)C(=O)N[C@@H]([C@@H](C)O)C(=O)N1)C(C)C)[C@@H](C)O)C(=O)N[C@@H](C)C(=O)N1CCC[C@H]1C(=O)N[C@@H](CC(C)C)C(=O)N[C@@H](CC(C)C)C(=O)N[C@@H](CO)C(=O)N[C@@H](CCCNC(=N)N)C(=O)N[C@@H](CO)C(=O)NCC(=O)NCC(=O)N[C@H](C(=O)N[C@H](C(=O)N[C@@H](CCCCN)C(=O)N[C@@H](CC(N)=O)C(=O)N[C@@H](CC(N)=O)C(=O)N[C@@H](Cc1ccccc1)C(=O)N[C@H](C(=O)N1CCC[C@H]1C(=O)N[C@H](C(=O)N[C@@H](CC(N)=O)C(=O)N[C@H](C(=O)NCC(=O)N[C@@H](CO)C(=O)N[C@@H](CCCCN)C(=O)N[C@@H](C)C(=O)N[C@@H](Cc1ccccc1)C(N)=O)C(C)C)[C@@H](C)O)C(C)C)C(C)C)C(C)C` [[Pro14]h alpha-CGRP] (HELM PEPTIDE1{A.C.D.T.A.T.C.V.T.H.R.L.A.P.L.L.S.R.S.G.G.V.V.K.N.N.F.V.P.T.N.V.G.S.K.A.F.[am]}$PEPTIDE1,PEPTIDE1,2:R3-7:R3$$$V2.0) were, in that order, 5.5 nM and 9 nM.
For the compound `CC(C)[C@H](NC(=O)[C@H](CC(N)=O)NC(=O)[C@@H](NC(=O)[C@@H]1CCCN1C(=O)[C@@H](NC(=O)[C@@H](N)Cc1ccccc1)C(C)C)[C@@H](C)O)C(=O)NCC(=O)N1CCC[C@H]1C(=O)N[C@@H](Cc1ccccc1)C(=O)N[C@@H](C)C(=O)N[C@@H](Cc1ccccc1)C(N)=O` [[Pro34,Phe35]h alpha-CGRP27-37] (H-FVPTNVGPFAF-NH2), the inhibition constant (Ki) was 118 nM in assay [1] and 50.7 nM in assay [2].
`CC(C)C[C@H](NC(=O)CNC(=O)[C@H](C)NC(=O)[C@H](CC(C)C)NC(=O)[C@H](CCCNC(=N)N)NC(=O)[C@H](Cc1cnc[nH]1)NC(=O)[C@@H](NC(=O)[C@@H](NC(=O)[C@@H]1CSSC[C@H](NC(=O)[C@H](C)N)C(=O)N[C@@H](CC(=O)O)C(=O)N[C@@H]([C@@H](C)O)C(=O)N[C@@H](C)C(=O)N[C@@H]([C@@H](C)O)C(=O)N1)C(C)C)[C@@H](C)O)C(=O)N[C@@H](CC(C)C)C(=O)N[C@@H](CO)C(=O)N[C@@H](CCCNC(=N)N)C(=O)N[C@@H](CO)C(=O)NCC(=O)NCC(=O)N[C@H](C(=O)N[C@H](C(=O)N[C@@H](CCCCN)C(=O)N[C@@H](CC(N)=O)C(=O)N[C@@H](CC(N)=O)C(=O)N[C@@H](Cc1ccccc1)C(=O)N[C@H](C(=O)N1CCC[C@H]1C(=O)N[C@H](C(=O)N[C@@H](CC(N)=O)C(=O)N[C@H](C(=O)NCC(=O)N[C@@H](CO)C(=O)N[C@@H](CCCCN)C(=O)N[C@@H](C)C(=O)N[C@@H](Cc1ccccc1)C(N)=O)C(C)C)[C@@H](C)O)C(C)C)C(C)C)C(C)C` [h alpha-CGRP] returned a Ki in assay [1] of 0.08 nM.
